For data set [1], the system named is root meristem cells of Allium cepa. In words: In vitro antimitotic activity and cytogenetic analysis, Allium cepa meristem root model. It is filed as cell-based. Particulars: compounds 1 mg/mL, PC (EMS) 2 × 10^−2 M; for MI (%) ± SEM (mitotic index): lower MI = higher activity, negative control 6.22. The protocol:
Small bulbs (1.5–2.0 cm in diameter) of the common onion, A. cepa (2n = 16), were purchased from vendor at a local market. Prior to initiating the test, the outer scales of the bulbs and the dry bottom plate were removed without destroying the root primordia. The roots of A. cepa were grown in distilled water in Erlenmeyer flasks (200 mL capacity) under laboratory conditions (dark 24 °C). For each synthesized compound sample, after reaching a length of 3 cm (±0.5 cm), a series of six bulbs were placed in distilled water (pH 7.3) for 48 h and then onion roots were treated with the synthesized compound at 1 mg/mL concentrations of each tested compound. The test tubes were kept in an incubator at 22 ± 1 °C, and the test samples were changed daily at the same time. Several of the newly formed root tips were then cut from each bulb and examined for any visible morphological abnormalities. The bulbs with satisfactory root lengths (2–2.5 cm) were used in the study, while those with exceptionally long or short roots were discarded (on average 2–3 bulbs). Therefore, individual sets of five bulbs were used for each extract sample.
Distilled water (pH 7.3) was used as a negative control, and EMS (2 × 10^−2 M) used as a positive control mutagen (Fiskesjo, [1993], [1997]). After 24 h of exposure, several root tips were removed from the bulbs, fixed in 3:1 (v/v) ethanol (90 %)/glacial acetic acid (45 %) and stored overnight at 4 °C. The next day, they were placed in 70 % (v/v) aqueous alcohol and refrigerated until used. Allium roots were softened by digesting with HCl and rinsed the roots in water. After removing the water from the third rinse, the roots were covered with the orcein acetate stain. The roots were incubated in the stain for 12 min. During this time, the very tip of the root begins to turn red as the DNA stains the numerous small actively dividing cells at the tip. A root was transferred to the centre of a clean microscope slide, and a drop of water was added. Using a razor blade most of the unstained part of the root was cut off and discarded. The root tip was covered with a cover slip and then carefully pushed down on the cover slide with the wooden end of a dissecting probe. […] The root tip should spread out to a diameter about 0.5–1 cm. Five slides were prepared per bulb.
The following parameters were used for the determination of cytotoxicity and genotoxicity: • (i) the mitotic index (MI) was calculated as the ratio between the number of mitotic cells and the total number of cells scored and expressed as percentage using following formula as per standard procedures. Mitoticindex=Numberofdividingcells/Totalnumberofcells×100 • (ii) Chromatin aberrations (stickiness, breaks and polar deviation) were used as end points for the determination of cytogenetic effects, and micronuclei (MNC) were scored in interphase cells per 1,000 cells (‰ MNC) (Freshney, [2000]). • (iii) The most frequent abnormalities are shown in microphotographs. After 72 h of exposure to the test samples, the root lengths were measured and used as an index of general toxicity. The results for mitotic index and root length are expressed as percentage of the negative and positive controls. Visible morphological modifications, such as changes in root consistency and colour as well as the presence of swelling (c-tumours), hooks or twists in the roots, were also observed.

Data set [2] is described as follows: Lipid peroxidation inhibitory activity (egg lecithin liposomes, TBA). Particulars: Conc. ± SD; standard ascorbic acid; read-out: IC50 inhibitory concentration, Lipid peroxidation. It is filed as biochemical. As for the experimental part:
Egg lecithin (3 mg/mL phosphate buffer, pH 7.4) was sonicated in an ultrasonic sonicator for 10 min to ensure proper liposome formation. Test samples or standard, ascorbic acid (100 μL) of different concentrations (10, 20, 30, 40 50 and 100 μg/mL) was added to liposome mixture (1 mL); the control was without test sample. Lipid peroxidation was induced by adding ferric chloride (10 μL, 400 mM) and L-ascorbic acid (10 μL, 200 mM). After incubation for 1 h at 37 °C, the reaction was stopped by adding hydrochloric acid (2 mL, 0.25 N) containing trichloroacetic acid (150 mg/mL), thiobarbituric acid (3.75 mg/mL) and butylated hydroxy anisole (0.50 mg/mL). The reaction mixture was subsequently boiled for 15 min, cooled and centrifuged at 1,000 rpm for 15 min, and the absorbance of the supernatant was measured at 532 nm (Duh and Yen, [1997]). The % inhibition at different concentrations was calculated by the following formula %Inhibition=[1-(Vt/Vc)]×100 where V t = mean absorption of test compound, V c = mean absorption of control.
The IC50 (nM/mL) value was derived from the % inhibition at different concentrations.

Data set [3] deals with BT474 (breast cancer cell line). In words: In vitro cytotoxicity by MTT assay, BT474. It is filed as cell-based. Particulars: Homo sapiens, 72 h; for cytotoxicity at 0.005 µM: BT-474, 0.005 μM; for cytotoxicity at 0.005 µM / cytotoxicity at 0.015 µM / cytotoxicity at 0.045 µM / cytotoxicity at 0.13 µM / cytotoxicity at 0.41 µM / cytotoxicity at 1.23 µM / cytotoxicity at 3.7 µM / cytotoxicity at 11.11 µM / cytotoxicity at 33.33 µM / cytotoxicity at 100 µM: read-out: % cytotoxicity (100 − % cell survival) of BT474 cell line; for cytotoxicity at 0.015 µM: BT-474, 0.015 μM; for cytotoxicity at 0.045 µM: BT-474, 0.045 μM; for cytotoxicity at 0.13 µM: BT-474, 0.13 μM; for cytotoxicity at 0.41 µM: BT-474, 0.41 μM; for cytotoxicity at 1.23 µM: BT-474, 1.23 μM; for cytotoxicity at 3.7 µM: BT-474, 3.7 μM; for cytotoxicity at 11.11 µM: BT-474, 11.11 μM; for cytotoxicity at 33.33 µM: BT-474, 33.33 μM; for cytotoxicity at 100 µM: BT-474, 100 μM. In a few lines: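 First, trypsinized cells went into wells at roughly 10,000 per well for 24 h. Next, medium was replaced with test compounds for 72 h at 37 °C. Finally, MTT was added for 4 h and the propanol-solubilized formazan read at 490 nm.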

Regarding `COc1ccc(C=Nc2nnc(S(=O)(=O)NC(=O)c3ccccc3)s2)cc1` [Compound 9d, N-({5-[(4-Methoxybenzylidene)amino]-1,3,4-thiadiazol-2-yl}sulfonyl)benzamide], in data set [1], the “Aberrant cells (%) ± SEM” value came out at 25.33 ± 9.42%, the “Chromosome breaks (%) ± SEM” value is 0.96 ± 0.46%, the “MNC (‰) ± SEM (micronuclei per 1,000 cells)” value is given as 0.51 ± 0.17 ‰ and the “Polar deviations (%) ± SEM” value came out at 9.15 ± 6.92%. Besides, in data set [1], the “Stickiness (%) ± SEM” value is listed as 14.48 ± 2.52% and the “MI (%) ± SEM (mitotic index)” value came to 2.34 ± 0.19%. In addition, the IC50 in data set [2] was 164 ± 14.6 µM. In data set [3], the cytotoxicity at 0.005 µM came to 33.3%, the cytotoxicity at 0.015 µM stood at 33.4%, the cytotoxicity at 0.045 µM was 33.5% and the cytotoxicity at 0.13 µM turned out to be 34%. For the same compound, in data set [3], the cytotoxicity at 0.41 µM is 34.2%, the cytotoxicity at 1.23 µM was found to be 36.8%, the cytotoxicity at 3.7 µM is 36.8% and the cytotoxicity at 11.11 µM came to 37.4%. In addition, in data set [3], the cytotoxicity at 33.33 µM was found to be 38% and the cytotoxicity at 100 µM amounted to 39.4%.

With `O=C(NS(=O)(=O)c1nnc(N=Cc2ccccc2)s1)c1ccccc1` [Compound 9a, N-{[5-(Benzylidenamino)-1,3,4-thiadiazol-2-yl]sulphonyl} benzamide], in data set [1], the “Aberrant cells (%) ± SEM” value is listed as 19.28 ± 5.22%, the “Chromosome breaks (%) ± SEM” value came out at 6.22 ± 1.02%, the “MNC (‰) ± SEM (micronuclei per 1,000 cells)” value is on record as 0.34 ± 0.15 ‰ and the “Polar deviations (%) ± SEM” value came out at 8.62 ± 2.16%. Further, in data set [1], the “Stickiness (%) ± SEM” value came out at 6.64 ± 2.38% and the “MI (%) ± SEM (mitotic index)” value is reported as 3.22 ± 0.16%. Also, the IC50 in data set [2] turned out to be 122 ± 18.6 µM. In addition, in data set [3], the cytotoxicity at 0.005 µM was 35.3%, the cytotoxicity at 0.015 µM came out at 35.8%, the cytotoxicity at 0.045 µM is 36.4% and the cytotoxicity at 0.13 µM was found to be 37%. For the same compound, in data set [3], the cytotoxicity at 0.41 µM came out at 38%, the cytotoxicity at 1.23 µM was 39%, the cytotoxicity at 3.7 µM amounted to 40.2% and the cytotoxicity at 11.11 µM was 40.6%. For the same compound, in data set [3], the cytotoxicity at 33.33 µM stood at 41.5% and the cytotoxicity at 100 µM worked out at 66%.

Take `COc1ccccc1C=Nc1nnc(S(=O)(=O)NC(=O)c2ccccc2)s1` [Compound 9c, N-({5-[(2-Methoxybenzylidene)amino]-1,3,4-thiadiazol-2-yl}sulfonyl)benzamide]: in data set [1], the “Aberrant cells (%) ± SEM” value was 38.54 ± 8.18%, the “MNC (‰) ± SEM (micronuclei per 1,000 cells)” value is reported as 0.36 ± 0.14 ‰, the “Polar deviations (%) ± SEM” value was 7.22 ± 2.61% and the “Stickiness (%) ± SEM” value is listed as 28.04 ± 6.34%. Besides, in data set [1], the “MI (%) ± SEM (mitotic index)” value stood at 0.53 ± 0.03%. For the same compound, the IC50 in data set [2] is 102 ± 14.5 µM. Further, in data set [3], the cytotoxicity at 0.005 µM was 38.1%, the cytotoxicity at 0.015 µM was found to be 41.5%, the cytotoxicity at 0.045 µM stood at 42.6% and the cytotoxicity at 0.13 µM was found to be 44.4%. Besides, in data set [3], the cytotoxicity at 0.41 µM was 47%, the cytotoxicity at 1.23 µM turned out to be 50.4%, the cytotoxicity at 3.7 µM turned out to be 53.6% and the cytotoxicity at 11.11 µM is 54.8%. Besides, in data set [3], the cytotoxicity at 33.33 µM was determined as 58.8% and the cytotoxicity at 100 µM was determined as 67.1%. Further, in data set [3] (BT-474, BT474, concentration at which 50 % of the cells are dead, read-out: CTC50 (cytotoxicity concentration)), the CC50 was determined as 794 nM.

Turning to `CN(C)c1ccc(C=Nc2nnc(S(=O)(=O)NC(=O)c3ccccc3)s2)cc1` [Compound 9h, N-[(5-{[4-(Dimethylamino)benzylidene]amino}-1,3,4-thiadiazol-2-yl)sulfonyl]benzamide], in data set [1], the “Aberrant cells (%) ± SEM” value is listed as 29.83 ± 5.03%, the “Chromosome breaks (%) ± SEM” value was 2.43 ± 0.67%, the “MNC (‰) ± SEM (micronuclei per 1,000 cells)” value is reported as 0.31 ± 0.14 ‰ and the “Polar deviations (%) ± SEM” value is given as 8.91 ± 1.56%. For the same compound, in data set [1], the “Stickiness (%) ± SEM” value is 16.50 ± 3.23% and the “MI (%) ± SEM (mitotic index)” value stood at 1.07 ± 0.13%. In data set [3], the cytotoxicity at 0.005 µM was determined as 29%, the cytotoxicity at 0.015 µM came out at 29.1%, the cytotoxicity at 0.045 µM amounted to 30.6% and the cytotoxicity at 0.13 µM was found to be 32.9%. Also, in data set [3], the cytotoxicity at 0.41 µM worked out at 33.8%, the cytotoxicity at 1.23 µM is 34.2%, the cytotoxicity at 3.7 µM was found to be 35.2% and the cytotoxicity at 11.11 µM was 38.4%. Besides, in data set [3], the cytotoxicity at 33.33 µM came out at 41.5% and the cytotoxicity at 100 µM came out at 47.7%.

As for `COc1cc(C=Nc2nnc(S(=O)(=O)NC(=O)c3ccccc3)s2)ccc1O` [Compound 9g, N-({5-[(4-Hydroxy-3-methoxybenzylidene)amino]-1,3,4-thiadiazol-2-yl}sulfonyl)benzamide], in data set [1], the “Aberrant cells (%) ± SEM” value worked out at 40.48 ± 12.94%, the “MNC (‰) ± SEM (micronuclei per 1,000 cells)” value is 0.48 ± 0.32 ‰, the “Polar deviations (%) ± SEM” value stood at 10.26 ± 2.13% and the “Stickiness (%) ± SEM” value came out at 32.24 ± 6.92%. The “MI (%) ± SEM (mitotic index)” value in data set [1] is listed as 0.41 ± 0.04%. Besides, in data set [3], the cytotoxicity at 0.005 µM was 27.4%, the cytotoxicity at 0.015 µM was determined as 28%, the cytotoxicity at 0.045 µM worked out at 28.7% and the cytotoxicity at 0.13 µM was found to be 29.2%. For the same compound, in data set [3], the cytotoxicity at 0.41 µM turned out to be 31.4%, the cytotoxicity at 1.23 µM amounted to 32.8%, the cytotoxicity at 3.7 µM is 33.2% and the cytotoxicity at 11.11 µM amounted to 34.7%. Further, in data set [3], the cytotoxicity at 33.33 µM was 36.2% and the cytotoxicity at 100 µM is 38.1%.
